In US8048683B2, “Insect repellent and process for identifying other insect repellent molecules” (Centre National de la Recherche Scientifique, priority 2006, dated 2011):

Experiments:
[1] = tested on: drosophilas; experiment: Gustatory choice (feeding preference) behavioral test with two dyes; type: in vivo, Drosophila melanogaster
Protocol: The test used measures the feeding preference in a choice with 2 possibilities materialized by two dyes, on the one hand erioglaucine (blue) and, on the other hand, sulforhodamine (red).
The erioglaucine is used at a final concentration of 5 mg/ml, dissolved in double-distilled water, pH 7.5. The sulforhodamine is used at a final concentration of 20 mg/ml, dissolved in double-distilled water, pH 7.5. The 2 dye solutions also contain sucrose fat a final concentration of 5 mM). The agonists (pH=7.5) used are added, an the final concentrations indicated on the figures, to the solution containing the erioglaucine.
To prepare a solid medium, these various compounds are added to a molten solution of agarose (0.3% final concentration, 45° C.) and deposited in a 96-well cell culture plate (Corning Incorporated, ref 3599) such that the wells alternately contain 200 μl of blue dye then 200 μl of red dye (see FIG. 4). The plates are left at ambient temperature for 2 hours in order for the agarose to solidify, and are then used for a feeding preference test.
For each behavioral test, 60 2- to 5-day-old drosophilas are deprived of food for 24 hours on cotton wool soaked with distilled water before the test and are then placed in a box containing a 96-well plate prepared as indicated above. The drosophilas are left in the dark for 2 hours, at 25° C., at a humidity of 30 to 50%. The drosophilas are then rapidly collected by anesthesia with CO2 and then frozen at −20° C. for 20 minutes. In order to determine the food intake, the flies are counted according to the color of the content of their digestive tube. The results are expressed as % of flies which have eaten a given medium relative to the total number of flies which have eaten, according to the formula: % blue=number of flies with a blue digestive tube, divided by the number of flies which have eaten (sum of the flies with a blue, violet or red digestive tube), multiplied by 100.
At least 3 independent tests were carried out for each point indicated on the figures, and the results of the tests were counted blind for the majority of the points. Only the tests in which more than […] of the flies had eaten were included in the results and in the statistical tests (T test and ANOVA). […]
The flies are counted according to the color of the content of their digestive tube.
The results are expressed as percentage of flies which have eaten a given medium, relative to the total number of flies which have eaten. % blue=N blue/(N blue+N violet+N red)×100 […]

[2] = biological target: T1, DmX receptor (DmXR) (Drosophila melanogaster, UniProt Q70GQ8); experiment: Pharmacological test: DmXR activation in transfected HEK cells, measured by accumulation of inositol triphosphate; conditions: FIG. 1
T1 sequence (Q70GQ8 1-1073): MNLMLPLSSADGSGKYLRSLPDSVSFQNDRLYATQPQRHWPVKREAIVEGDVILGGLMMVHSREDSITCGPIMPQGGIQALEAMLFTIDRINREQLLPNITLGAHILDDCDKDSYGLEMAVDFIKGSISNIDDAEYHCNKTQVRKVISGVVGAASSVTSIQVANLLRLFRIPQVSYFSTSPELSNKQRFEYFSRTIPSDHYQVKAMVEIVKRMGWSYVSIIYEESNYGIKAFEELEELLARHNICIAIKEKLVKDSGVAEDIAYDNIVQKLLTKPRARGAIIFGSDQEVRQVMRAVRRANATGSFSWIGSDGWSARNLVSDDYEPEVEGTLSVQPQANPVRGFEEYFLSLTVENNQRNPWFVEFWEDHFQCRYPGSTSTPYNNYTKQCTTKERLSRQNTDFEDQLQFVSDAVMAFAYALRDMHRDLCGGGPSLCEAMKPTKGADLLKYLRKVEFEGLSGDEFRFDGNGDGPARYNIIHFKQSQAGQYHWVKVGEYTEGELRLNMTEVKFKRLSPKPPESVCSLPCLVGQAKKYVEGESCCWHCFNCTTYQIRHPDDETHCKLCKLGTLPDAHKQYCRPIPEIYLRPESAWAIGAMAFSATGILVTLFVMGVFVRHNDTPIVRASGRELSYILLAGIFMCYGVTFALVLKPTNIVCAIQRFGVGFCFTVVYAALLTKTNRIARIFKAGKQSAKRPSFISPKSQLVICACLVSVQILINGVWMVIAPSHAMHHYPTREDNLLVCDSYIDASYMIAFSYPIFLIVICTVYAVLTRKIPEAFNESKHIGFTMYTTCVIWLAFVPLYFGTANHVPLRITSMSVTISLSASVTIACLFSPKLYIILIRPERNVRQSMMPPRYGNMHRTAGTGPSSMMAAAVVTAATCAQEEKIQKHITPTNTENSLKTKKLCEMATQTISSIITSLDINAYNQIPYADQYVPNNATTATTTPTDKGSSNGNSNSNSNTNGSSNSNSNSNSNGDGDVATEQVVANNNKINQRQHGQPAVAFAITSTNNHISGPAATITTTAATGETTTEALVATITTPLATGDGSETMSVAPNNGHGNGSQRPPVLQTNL

## N=C(N)NOCC[C@H](N)C(=O)O [L-canavanine, L-2-amino-4-(guanidinooxy)butyric acid]
[1]; 40 mM, 5 mM sucrose
  effect on sugary solution in behavioral test: very highly repellent
[1]; additional experiments
  concentration at which a plateau of repellent effect is reached: around 30 mM
[1]; mutant drosophilas m1 and m2 (DmXR-)
  repulsion in DmX receptor function loss mutants: no longer have any repulsion
[1]; wild-type drosophila, sugary solution (5 mM sucrose)
  repellent effect in chemosensory behavioral test: highly repellent
[2]
  in vitro activation of the DmX receptor: activated
